Patent publication US20260083865A1, “PROSTATE SPECIFIC MEMBRANE ANTIGEN (PSMA) LIGANDS AND USE THEREOF” (priority 2022, published 2026)
Numbered stars: 1 amine (or outer) side, 2 acyl side, 3 side chain; on linkers, the order of the positions; unused ones are H or OH. Bridge positions count the residues as written; N and C are the ends. Square brackets hold non-standard residues; d marks the D form. Peptide text beside a SMILES is read from it. * marks the point of attachment. X3 = O=C(O)CN1CCN(CC(=O)O)CCN(CC(=O)NCCCOCCOCCOCCCN*)CCN(CC(=O)O)CC1; DOTA = O=C(O)CN1CCN(CC(=O)O)CCN(CC(=O)*)CCN(CC(=O)O)CC1; Lys(Me3) = C[N+](C)(C)CCCC[C@H](N)C(=O)O; Phe(3-Cl) = N[C@@H](Cc1cccc(Cl)c1)C(=O)O; Phe(4-Cl) = N[C@@H](Cc1ccc(Cl)cc1)C(=O)O; Arg(Me) = CNC(=N)NCCC[C@H](N)C(=O)O; Ethylenediamine = C(CN[*:2])N[*:1]; X1 = O=C(CC1CCN([*:1])CC1)[*:2]; Aad = N[C@@H](CCCC(=O)O)C(=O)O; Lys(Me) = CNCCCC[C@H](N)C(=O)O; Suc = O=C(CCC(=O)[*:2])[*:1]; Tle = CC(C)(C)[C@H](N)C(=O)O; 4Abz = Nc1ccc(C(=O)O)cc1; Nle = CCCC[C@H](N)C(=O)O; Aib = CC(C)(N)C(=O)O; CO = O=C([*:1])[*:2]; NHBu = CCCCN*

Experiments:
[1] = target: T1, PSMA-expressing C4-2 cells (Homo sapiens, UniProt Q04609); assay: FACS binding assay (competition with 50 nM PSM-0183); conditions: pIC50 category of FACS binding, C4-2 cells; read-out: pIC50 [C4-2] CAT (converted)
T1 construct: PSMA-expressing C4-2 cells (ATCC, Cat. No. CRL-3314) were cultured in RPMI-1640; host or cells: C4-2 cells
Outline: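 C4-2 cells were incubated 1 h at 4 °C with 50 nM AF488-labelled peptide PSM-0183 plus increasing test compound concentrations, then washed twice in ice-cold buffer. Median fluorescence in the AF488 channel was read by flow cytometry. IC50/pIC50 was derived by 4PL fitting of MFI versus concentration.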

[2] = target: T2, Fc-fusion protein of human PSMA (hPSMA-Fc) (Homo sapiens, UniProt Q04609); assay: Surface plasmon resonance assay (Biacore T200, single cycle kinetic); type: binding; conditions: pKD category for PSMA SPR activity assay, hPSMA-Fc, 25° C.; read-out: pKD CAT (converted)
T2 construct: purchased Acro Biosystems PSA-H5264
Outline: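 hPSMA-Fc was captured (~1000 RU) on an Fc-binding-peptide CM5 chip, and compounds were run in single cycle kinetic mode at 25° C in HBST with 0.1% DMSO. Double-blank-corrected sensorgrams were fitted to a 1:1 Langmuir model to give KD, reported as pKD.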

T1 sequence (Q04609 whole entry): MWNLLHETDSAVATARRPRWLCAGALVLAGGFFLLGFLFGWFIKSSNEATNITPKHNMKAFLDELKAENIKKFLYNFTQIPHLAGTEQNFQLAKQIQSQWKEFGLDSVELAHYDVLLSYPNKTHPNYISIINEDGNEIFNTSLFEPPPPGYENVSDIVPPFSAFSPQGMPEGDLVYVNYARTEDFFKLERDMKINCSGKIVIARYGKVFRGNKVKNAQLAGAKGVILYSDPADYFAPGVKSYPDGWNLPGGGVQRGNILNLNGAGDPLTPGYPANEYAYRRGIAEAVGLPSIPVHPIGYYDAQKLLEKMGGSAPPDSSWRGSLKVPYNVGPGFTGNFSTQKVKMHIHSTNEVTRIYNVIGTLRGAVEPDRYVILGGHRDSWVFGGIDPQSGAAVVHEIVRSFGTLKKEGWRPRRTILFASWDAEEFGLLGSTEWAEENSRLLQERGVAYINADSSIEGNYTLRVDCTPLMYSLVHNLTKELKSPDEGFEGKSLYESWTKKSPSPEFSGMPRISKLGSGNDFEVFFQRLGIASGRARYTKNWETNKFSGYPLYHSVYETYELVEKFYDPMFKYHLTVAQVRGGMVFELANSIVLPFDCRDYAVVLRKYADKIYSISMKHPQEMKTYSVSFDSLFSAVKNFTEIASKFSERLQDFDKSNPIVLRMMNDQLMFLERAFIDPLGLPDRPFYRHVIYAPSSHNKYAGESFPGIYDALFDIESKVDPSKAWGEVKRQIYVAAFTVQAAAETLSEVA
T2 sequence (Q04609 44-750 limits assumed): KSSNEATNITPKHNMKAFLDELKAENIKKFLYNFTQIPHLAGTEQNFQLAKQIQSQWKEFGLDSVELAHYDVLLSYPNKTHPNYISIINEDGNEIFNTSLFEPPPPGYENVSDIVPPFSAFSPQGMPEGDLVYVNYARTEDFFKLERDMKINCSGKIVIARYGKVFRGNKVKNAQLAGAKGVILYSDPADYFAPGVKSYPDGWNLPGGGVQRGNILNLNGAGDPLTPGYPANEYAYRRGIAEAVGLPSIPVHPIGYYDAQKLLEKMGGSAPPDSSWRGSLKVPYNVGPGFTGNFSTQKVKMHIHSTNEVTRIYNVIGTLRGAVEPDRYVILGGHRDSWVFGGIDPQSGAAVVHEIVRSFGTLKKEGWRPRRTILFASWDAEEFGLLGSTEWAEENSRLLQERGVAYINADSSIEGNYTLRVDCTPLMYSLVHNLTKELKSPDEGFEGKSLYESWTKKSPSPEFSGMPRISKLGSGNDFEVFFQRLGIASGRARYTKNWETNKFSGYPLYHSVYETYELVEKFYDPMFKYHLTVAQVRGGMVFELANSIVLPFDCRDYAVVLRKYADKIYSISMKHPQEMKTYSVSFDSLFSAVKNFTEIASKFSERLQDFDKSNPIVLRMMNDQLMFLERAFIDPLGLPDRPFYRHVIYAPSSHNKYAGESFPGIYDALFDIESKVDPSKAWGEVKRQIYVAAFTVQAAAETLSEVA

Compound | IC50 [1] | Kd [2]
CC(=O)N[C@H](C(=O)NC(C)(C)C(=O)N[C@@H](Cc1ccccc1)C(=O)N[C@H]1CSSC[C@@H](C(=O)N[C@H](C(=O)N[C@H](C(=O)Nc2ccc(C(=O)N[C@H](CCCCNC(=O)CN3CCN(CC(=O)O)CCN(CC(=O)O)CCN(CC(=O)O)CC3)C(N)=O)cc2)[C@@H](C)O)C(C)(C)C)NC(=O)[C@H](CC(N)=O)NC(=O)C(C)(C)NC(=O)[C@H](CCCNC(=N)N)NC(=O)[C@H](CCCCN)NC1=O)[C@@H](C)O [PSM-0471, Ac-Thr-Aib-Phe-[Cys-Lys-Arg-Aib-Asn-Cys]-Tle-Thr-Pab-lys(DOTA)-NH2] (Ac-T[Aib]FCKR[Aib]NC[Tle]T[4Abz][dK](DOTA)-NH2; disulfide 4-9) | < 200 nM | < 12.6 nM
CNCCCC[C@@H]1NC(=O)[C@@H](NC(=O)[C@H](Cc2ccc(Cl)cc2)NC(=O)C(C)(C)NC(C)=O)CSSC[C@@H](C(=O)N[C@H](C(=O)NCCNC(=O)CN2CCN(CC(=O)O)CCN(CC(=O)O)CCN(CC(=O)O)CC2)C(C)(C)C)NC(=O)[C@H](CC(N)=O)NC(=O)C(C)(C)NC(=O)[C@H](CCCNC(=N)N)NC1=O [PSM-0472, Ac-Aib-Pcf-[Cys-Lys(Me)-Arg-Aib-Asn-Cys]-Tle-en-DOTA] (Ac-[Aib][Phe(4-Cl)]C[Lys(Me)]R[Aib]NC[Tle]-{Ethylenediamine-DOTA}; disulfide 3-8) | < 200 nM | < 12.6 nM
CCCC[C@H](NC(=O)[C@@H]1CSSC[C@H](NC(=O)[C@H](Cc2ccccc2)NC(=O)[C@H](C)NC(=O)[C@@H](NC(C)=O)[C@@H](C)O)C(=O)N[C@@H](CCCCN)C(=O)N[C@@H](CCCNC(=N)N)C(=O)N[C@H](C)C(=O)N[C@@H](CC(N)=O)C(=O)N1)C(=O)N[C@H](C(=O)N[C@@H](CC(=O)O)C(N)=O)[C@@H](C)O [PSM-0474, Ac-Thr-Ala-Phe-[Cys-Lys-Arg-ala-Asn-Cys]-Nle-Thr-Asp-NH2] | 1260 to 3160 nM | > 501 nM
CCCC[C@H](NC(=O)[C@@H]1CSSC[C@H](NC(=O)[C@H](Cc2ccccc2)NC(=O)[C@H](C)NC(=O)[C@@H](NC(C)=O)[C@@H](C)O)C(=O)N[C@@H](C)C(=O)N[C@@H](CCCNC(=N)N)C(=O)N[C@@H](C)C(=O)N[C@@H](CC(N)=O)C(=O)N1)C(=O)N[C@H](C(=O)N[C@@H](CC(=O)O)C(N)=O)[C@@H](C)O [PSM-0475, Ac-Thr-Ala-Phe-[Cys-Ala-Arg-Ala-Ass-Cys]-Nle-Thr-Asp-NH2] (Ac-TAFCARANC[Nle]TD-NH2; disulfide 4-9) | 1260 to 3160 nM | > 501 nM
CCCC[C@H](NC(=O)[C@@H]1CSSC[C@H](NC(=O)[C@H](Cc2ccccc2)NC(=O)[C@H](C)NC(=O)[C@@H](NC(C)=O)[C@@H](C)O)C(=O)N[C@@H](CCCCN)C(=O)N[C@@H](CCCNC(=N)N)C(=O)N[C@@H](C)C(=O)N[C@@H](CC(N)=O)C(=O)N1)C(=O)N[C@@H](C)C(=O)N[C@@H](CC(=O)O)C(N)=O [PSM-0476, Ac-Thr-Als-Phe-[Cys-Lys-Arg-Ala-Asn-Cys]-Nle-Als-Asp-NH2] (Ac-TAFCKRANC[Nle]AD-NH2; disulfide 4-9) | 200 to 1260 nM | 126 to 501 nM
CC(=O)N[C@H](C(=O)NC(C)(C)C(=O)N[C@@H](Cc1ccccc1)C(=O)N[C@H]1CSSC[C@@H](C(=O)N[C@H](C(=O)NCC(N)=O)C(C)(C)C)NC(=O)[C@H](CC(N)=O)NC(=O)C(C)(C)NC(=O)[C@H](CCCNC(=N)N)NC(=O)[C@H](CCCCN)NC1=O)[C@@H](C)O [PSM-0477, Ac-Thr-Aib-Phe-[Cys-Lys-Arg-Aib-Asn-Cys]-Tle-Gly-NH2] (Ac-T[Aib]FCKR[Aib]NC[Tle]G-NH2; disulfide 4-9) | < 200 nM | < 12.6 nM
CC(=O)N[C@H](C(=O)NC(C)(C)C(=O)N[C@@H](Cc1ccccc1)C(=O)N[C@H]1CSSC[C@@H](C(=O)N[C@H](C(=O)N[C@H](C(N)=O)[C@@H](C)O)C(C)(C)C)NC(=O)[C@H](CC(=O)O)NC(=O)C(C)(C)NC(=O)[C@H](CCCNC(=N)N)NC(=O)[C@H](CCCCN)NC1=O)[C@@H](C)O [PSM-0478, Ac-Thr-Aib-Phe-[Cys-Lys-Arg-Aib-Asp-Cys]-Tle-Thr-NH2] (Ac-T[Aib]FCKR[Aib]DC[Tle]T-NH2; disulfide 4-9) | < 200 nM | < 12.6 nM
CC(=O)N[C@H](C(=O)NC(C)(C)C(=O)N[C@@H](Cc1ccccc1)C(=O)N[C@H]1CSSC[C@@H](C(=O)N[C@H](C(=O)N[C@H](C(N)=O)[C@@H](C)O)C(C)(C)C)NC(=O)CNC(=O)C(C)(C)NC(=O)[C@H](CCCNC(=N)N)NC(=O)[C@H](CCCCN)NC1=O)[C@@H](C)O [PSM-0479, Ac-Thr-Aib-Phe-[Cys-Lys-Arg-Aib-Gly-Cys]-Tle-Thr-NH2] (Ac-T[Aib]FCKR[Aib]GC[Tle]T-NH2; disulfide 4-9) | < 200 nM | < 12.6 nM
CC(C)C[C@H](NC(=O)[C@@H]1CSSC[C@H](NC(=O)[C@H](Cc2ccccc2)NC(=O)[C@H](C)NC(=O)[C@@H](NC(=O)CCC(=O)NCCCOCCOCCOCCCNC(=O)CN2CCN(CC(=O)O)CCN(CC(=O)O)CCN(CC(=O)O)CC2)[C@@H](C)O)C(=O)N[C@@H](CCCCN)C(=O)N[C@@H](CCCNC(=N)N)C(=O)N[C@@H](C)C(=O)N[C@@H](CC(N)=O)C(=O)N1)C(N)=O [PSM-0480, DOTA-Ttds-Thr-Ala-Phe-[Cys-Lys-Arg-Ala-Asn-Cys]-Lou-NH2] ({X3-Suc}-TAFCKRANCL-NH2; disulfide 4-9) | 1260 to 3160 nM | 126 to 501 nM
CC(=O)N[C@H](C(=O)NC(C)(C)C(=O)N[C@@H](Cc1ccc(Cl)cc1)C(=O)N[C@H]1CSSC[C@@H](C(=O)N[C@H](C(=O)N[C@H](C(=O)N2CCC(CC(=O)N[C@H](CCCCNC(=O)CN3CCN(CC(=O)O)CCN(CC(=O)O)CCN(CC(=O)O)CC3)C(N)=O)CC2)[C@@H](C)O)C(C)(C)C)NC(=O)[C@H](CC(N)=O)NC(=O)C(C)(C)NC(=O)[C@H](CCCNC(=N)N)NC(=O)[C@H](CCCCN)NC1=O)[C@@H](C)O [PSM-0482, Ac-Thr-Aib-Pcf-[Cys-Lys-Arg-Aib-Asn-Cys]-Tle-Thr-Cmp-lys(DOTA)-NH2] (Ac-T[Aib][Phe(4-Cl)]CKR[Aib]NC[Tle]T[X1][dK](DOTA)-NH2; disulfide 4-9) | < 200 nM | < 12.6 nM

The next lines start with the values.

IC50 [1] | Kd [2] | Compound
< 200 nM | 12.6 to 126 nM | CNC(=N)NCCC[C@@H]1NC(=O)[C@H](CCCC[N+](C)(C)C)NC(=O)[C@@H](NC(=O)[C@H](Cc2ccc(Cl)cc2)NC(=O)C(C)(C)NC(=O)[C@@H](NC(=O)CC2CCN(C(=O)CN3CCN(CC(=O)O)CCN(CC(=O)O)CCN(CC(=O)O)CC3)CC2)[C@@H](C)O)CSSC[C@@H](C(=O)N[C@H](C(=O)N[C@H](C(N)=O)[C@@H](C)O)C(C)(C)C)NC(=O)[C@H](CC(N)=O)NC(=O)C(C)(C)NC1=O [PSM-0483, DOTA-Cmp-Thr-Aib-Pcf-[Cys-KMe3-Arg(Me)-Aib-Asn-Cys]-Tle-Thr-NH2] ({DOTA}-[X1]T[Aib][Phe(4-Cl)]C[Lys(Me3)][Arg(Me)][Aib]NC[Tle]T-NH2; disulfide 5-10)
< 200 nM | < 12.6 nM | CCCCNC(=O)N[C@H](C(=O)NC(C)(C)C(=O)N[C@@H](Cc1ccccc1)C(=O)N[C@H]1CSSC[C@@H](C(=O)N[C@H](C(=O)N[C@H](C(=O)N2CCC(CC(=O)N[C@H](CCCCNC(=O)CN3CCN(CC(=O)O)CCN(CC(=O)O)CCN(CC(=O)O)CC3)C(N)=O)CC2)[C@@H](C)O)C(C)(C)C)NC(=O)[C@H](CC(N)=O)NC(=O)C(C)(C)NC(=O)[C@H](CCCNC(=N)N)NC(=O)[C@H](CCCCN)NC1=O)[C@@H](C)O [PSM-0484, nBuCAyl-Thr-Aib-Phe-[Cys-Lys-Arg-Aib-Asn-Cys]-Tle-Thr-Cmp-lys(DOTA)-NH2] ({NHBu-CO}-T[Aib]FCKR[Aib]NC[Tle]T[X1][dK](DOTA)-NH2; disulfide 4-9)
< 200 nM | < 12.6 nM | C[C@@H](O)[C@H](NC(=O)[C@@H](NC(=O)[C@@H]1CSSC[C@H](NC(=O)[C@H](Cc2ccc(Cl)cc2)NC(=O)C(C)(C)NC(=O)[C@@H](NC(=O)CC2CCN(C(=O)CN3CCN(CC(=O)O)CCN(CC(=O)O)CCN(CC(=O)O)CC3)CC2)[C@@H](C)O)C(=O)N[C@@H](CCCC(N)=O)C(=O)N[C@@H](CCCNC(=N)N)C(=O)NC(C)(C)C(=O)N[C@@H](CC(N)=O)C(=O)N1)C(C)(C)C)C(N)=O [PSM-0485, DOTA-Cmp-Thr-Aib-Pcf-[Cys-Hgn-Arg-Aib-Asn-Cys]-Tle-Thr-NH2] ({DOTA}-[X1]T[Aib][Phe(4-Cl)]C[Aad](NH2)R[Aib]NC[Tle]T-NH2; disulfide 5-10)
< 200 nM | < 12.6 nM | CC(=O)N[C@H](C(=O)NC(C)(C)C(=O)N[C@@H](Cc1cccc(Cl)c1)C(=O)N[C@H]1CSSC[C@@H](C(=O)N[C@H](C(=O)N[C@H](C(=O)N2CCC(CC(=O)N[C@H](CCCCNC(=O)CN3CCN(CC(=O)O)CCN(CC(=O)O)CCN(CC(=O)O)CC3)C(N)=O)CC2)[C@@H](C)O)C(C)(C)C)NC(=O)[C@H](CC(N)=O)NC(=O)C(C)(C)NC(=O)[C@H](CCCNC(=N)N)NC(=O)[C@H](CCCCN)NC1=O)[C@@H](C)O [PSM-0486, Ac-Thr-Aib-Mcf-[Cys-Lys-Arg-Aib-Asn-Cys]-Tle-Thr-Cmp-lys(DOTA)-NH2] (Ac-T[Aib][Phe(3-Cl)]CKR[Aib]NC[Tle]T[X1][dK](DOTA)-NH2; disulfide 4-9)
< 200 nM | 12.6 to 126 nM | CC(=O)N[C@H](C(=O)NC(C)(C)C(=O)N[C@@H](Cc1ccc(O)cc1)C(=O)N[C@H]1CSSC[C@@H](C(=O)N[C@H](C(=O)N[C@H](C(=O)N[C@@H](CC(=O)O)C(N)=O)[C@@H](C)O)C(C)(C)C)NC(=O)[C@H](CC(N)=O)NC(=O)C(C)(C)NC(=O)[C@H](CCCNC(=N)N)NC(=O)[C@H](CCCCN)NC1=O)[C@@H](C)O [PSM-0488, Ac-Thr-Aib-Tyr-[Cys-Lys-Arg-Aib-Asn-Cys]-Tle-Thr-Asp-NH2] (Ac-T[Aib]YCKR[Aib]NC[Tle]TD-NH2; disulfide 4-9)
